Where “and” joins values, the source holds several entries; their conditions need not be identical. Equal entries are not always repeated. Marks after values point to notes of the source that are not given here. Ends that are not written are not given here.
Columns and labels:
[1] = ThT assay lag-time (fibrillation propensity, physical stability); assay type: physicochemical
From the text: ThT is widely used to visualize and quantify the presence of misfolded peptide and protein aggregates called amyloids or fibrils. ThT is a fluorescent molecule that binds to inter molecular beta-sheets in peptides and proteins (here AnxA1). […] A weaker fluorescence intensity is indicative of less amyloids or fibrils present with fewer intermolecular beta-sheets where ThT can bind. Some peptides have a tendency to form fibrils and amyloids and the propensity is dependent on the formulation conditions in an unpredictable manor. Fibrillation is a stochastic process and to avoid long analysis times and both false negatives and positive results, shear stress is introduced to the sample by rigorous rotation in microtiter plates while continuously monitoring the fluorescence emission at approximately 486 nm. An increase in the fluorescence is an indication of the formation of amyloids or fibrils and the time it takes for the fluorescence to start increasing is known as the lag-time. A faster (short) lag-time is an indication of higher propensity for the peptide to degrade by formation of fibrils or amyloids. A ThT fluorescence of 50 AU at t=0 is considered noise or background. Lag time is reported as the time it takes for the signal intensity to exceed 50 AU. All samples for the ThT assay were filtered through cellulose acetate filters ([…], Ø=13 mm, rinsed with MilliQ® water prior to filtration). For each sample, 20 μL ThT of a 1 mM solution was added to 1 mL peptide solution. From this sample mixture, 200 μL was transferred into n wells in a 96 well microtiter plate (n=3-6). 96-well NUNC plates Bottom optics and Sealing tape, Thermo Scientific™ Nunc™ Sealing Tapes, was used. Lag-time is reported as an average of n samples. A fluorescence plate reader (CLARIOstar® Plus, BMG Labtech) was used for the experiments with the following setting: Excitation wavelength 450 nm; Dichroic filter 465 nm; Emission wavelength 486 nm; Focal height 3.5 mm; Gain 1000; […]; […]; Number of flashes per well 20; Temperature 25° C.; Shake mode orbital, Frequency of 300 rpm, 200 s, and shake after each cycle. If possible, the average of all ThT data replicates are used for ThT lag-time determination. In case of very stochastic data, worst-case data is used for lag-time evaluation. ThT lag-time was determined using either a 1-step or 2-step sigmoidal curve.

Dissolution time = assay type: physicochemical
Experimental: The peptide was initially wetted with a small amount of solvent and left for 5 minutes and following added the full amount of solvent. The solution was swirled by hand and observation of final dissolution time noted.
1.6 or 3.2 mg AnxA1 was added to Milli Q® water at around neutral pH containing different salts (NaCl, CaCl2, ZnCl2 or HCl) according to table 2. Dissolution times was observed and the resulting solutions was analyzed using the ThT assay.

[2] = Milli Q water around neutral pH, no addition of salt

Lag-time ([1]; AnxA1 4.7 mg/mL, sucrose 10 wt.%, glycyl-glycine 30 mM, pH 8.0 (two samples)): >65 h and 50 h
Lag-time ([1]; AnxA1 4.8 mg/mL, mannitol 5 wt.%, histidine 10 mM, pH 6.6): 42.1 h
Lag-time ([1]; AnxA1 4.8 mg/mL, sorbitol 5 wt.%, histidine 10 mM, pH 6.7): 21.3 h
Lag-time ([1]; AnxA1 4.8 mg/mL, sucrose 10 wt.%, glycylglycine 10 mM, pH 7.9, no increase in fluorescence within 65 hours): > 65* hours
Lag-time ([1]; AnxA1 4.8 mg/mL, sucrose 10 wt.%, histidine 10 mM, pH 6.6): 48.8 h
Avg. lag-time ([1]; AnxA1 5.0 mg/mL, 0.9% NaCl in Milli Q water, pH 7.3): 2.7 h
Lag-time ([1]; AnxA1 5 mg/mL, tonicity 80%, mannitol 3.2 wt.%, sucrose 0.8 wt.%, NaHCO3 10 mM, pH 8.41): <60 h
Lag-time ([1]; AnxA1 5 mg/mL, tonicity 80%, mannitol 3.2 wt.%, sucrose 0.8 wt.%, glycylglycine 10 mM, pH 8.40): <60 h
Lag-time ([1]; AnxA1 5 mg/mL, tonicity 100%, mannitol 4.0 wt.%, sucrose 1.0 wt.%, NaHCO3 10 mM, pH 8.40): <60 h
Lag-time ([1]; AnxA1 5 mg/mL, tonicity 100%, mannitol 4.0 wt.%, sucrose 1.0 wt.%, glycylglycine 10 mM, pH 8.39): <60 h
Lag-time ([1]; AnxA1 5 mg/mL, tonicity 120%, mannitol 4.8 wt.%, sucrose 1.2 wt.%, NaHCO3 10 mM, pH 8.40): <60 h
Lag-time ([1]; AnxA1 5 mg/mL, tonicity 120%, mannitol 4.8 wt.%, sucrose 1.2 wt.%, glycylglycine 10 mM, pH 8.41): <60 h
Lag-time ([1]; AnxA1 5 mg/mL, tonicity 200%, mannitol 8.0 wt.%, sucrose 2.0 wt.%, NaHCO3 10 mM, pH 8.44): <60 h
Lag-time ([1]; AnxA1 5 mg/mL, tonicity 200%, mannitol 8.0 wt.%, sucrose 2.0 wt.%, glycylglycine 10 mM, pH 8.40): <60 h
Avg. lag-time ([1]; AnxA1 6.1 mg/mL in Milli-Q water, pH 7.4): 29.6 h
Avg. lag-time ([1]; AnxA1 6.4 mg/mL, 0.9% NaCl in Milli Q water, pH 7.3): 0 h
Avg. lag-time ([1]; AnxA1 7.6 mg/mL, 0.9% NaCl in Milli Q water, pH 7.3): 0 h
Lag-time ([1]; AnxA1 7.7 mg/mL, sucrose 10 wt.%, glycyl-glycine 50 mM, pH 8.5): 29.5 h
Lag-time ([1]; AnxA1 7.8 mg/mL, mannitol 4 wt.%, sucrose 2.5 wt.%, glycyl-glycine 50 mM, pH 8.5): 31.5 h
Lag-time ([1]; AnxA1 7.9 mg/mL, sucrose 10 wt.%, glycyl-glycine 10 mM, pH 7.5): 23.8 h
Avg. lag-time ([1]; AnxA1 8.0 mg/mL in Milli-Q water, pH 7.4): 11.5 h
Lag-time ([1]; AnxA1 8.0 mg/mL, mannitol 4 wt.%, sucrose 2.5 wt.%, glycyl-glycine 10 mM, pH 7.5): 15.1 h
Lag-time ([1]; AnxA1 8.0 mg/mL, mannitol 4 wt.%, sucrose 2.5 wt.%, glycyl-glycine 10 mM, pH 8.3): >65 h
Lag-time ([1]; AnxA1 8.0 mg/mL, mannitol 4 wt.%, sucrose 2.5 wt.%, glycyl-glycine 50 mM, pH 7.6): 3.3 h
Lag-time ([1]; AnxA1 8.0 mg/mL, mannitol 5 wt.%, glycyl-glycine 50 mM, pH 7.5): 3.1 h
Lag-time ([1]; AnxA1 8.0 mg/mL, mannitol 5 wt.%, glycyl-glycine 50 mM, pH 8.5): 41.7 h
Lag-time ([1]; AnxA1 8.1 mg/mL, mannitol 5 wt.%, glycyl-glycine 10 mM, pH 7.4): 13.7 h
Lag-time ([1]; AnxA1 8.1 mg/mL, sucrose 10 wt.%, glycyl-glycine 10 mM, pH 8.2): >65 h
Lag-time ([1]; AnxA1 8.4 mg/mL, mannitol 5 wt.%, glycyl-glycine 10 mM, pH 8.2): 41 h
Avg. lag-time ([1]; AnxA1 20 mg/mL (estimated from amount weighed, gel-like texture), 0.9% NaCl, pH 8.1 (not considered valid)): 0 h
lag-time ([1]; Example 11 composition at pH 7.5): 35 h and 34.7 h
lag-time [1, 2]: > 50 h
fibrillation in ThT assay ([1]; NaHCO3 or glycylglycine buffer at 20% hypotonicity, and at 20% and 100% hypertonicity): No fibrillation was observed
Lag-time ([1]; all samples containing 10 mM glycyl-glycine, pH 8, independent of AnxA1 concentration (1.5-4.8 mg/mL) and isotonicity modifier): > 65 h
fibrillation propensity ([1]; concentrations ≥5 mg/mL, 0.9% NaCl in Milli Q water, around neutral pH, degradation initiated before the analysis is started): very high fibrillation propensity
fibrillation in ThT assay ([1]; positive control sample in 0.9% saline): Fibrillation is observed
fibrillation propensity ([1]; saline at neutral pH around 7.3): very high fibrillation propensity
dissolution (Dissolution time; 20 mg freeze-dried AnxA1 per mL 0.9% NaCl (154 mM) in Milli Q at neutral pH): not readily dissolved
Dissolution time (Notes) (Dissolution time; AnxA1 1.5 mg/mL, NaCl 0.9%, ZnCl2 0.77 mM, pH N/A, after more than 2 hours): not fully solubilized
Dissolution time (Notes) (Dissolution time; AnxA1 1.6 mg/mL in Milli Q water, no salt, pH 7.5): 5 min
Dissolution time (Notes) (Dissolution time; AnxA1 1.6 mg/mL in Milli Q water, no salt, pH 7.6): 5 min
Dissolution time (Notes) (Dissolution time; AnxA1 1.6 mg/mL, CaCl2 0.77 mM, pH 7.2): 5 min
Dissolution time (Notes) (Dissolution time; AnxA1 1.6 mg/mL, CaCl2 0.77 mM, pH 7.4): 10 min
Dissolution time (Notes) (Dissolution time; AnxA1 1.6 mg/mL, NaCl 0.9%, CaCl2 0.77 mM, pH 7.1): 35 min
Dissolution time (Notes) (Dissolution time; AnxA1 3.2 mg/mL, NaCl 0.9%, pH 7.2): 45 min
dissolution time (Dissolution time; [2]): less than 5 minutes
Substance: AMVSEFLKQAWFIENEEQEYVQTLKSSKGGPGSAVSPYPTFNPSSDV-NH2 [AnxA1]

Source: US20240041977A1, “ANNEXIN A1 N-TERMINAL PEPTIDE FORMULATIONS AND METHODS” (ResoTher Pharma A/S, priority 2020, published 2024)
